From patent US5641775A, “3-phenylureido-1,5-benzodiazepine-diones useful as gastrin or antagonists” (Glaxo SpA, priority 1993, dated 1997)

Assays:
CCK-B receptor = target: T1, CCK-B receptor (Cavia porcellus, UniProt H0VZC5); assay: CCK receptor binding, CCK-B receptor (guinea pig cortex assay), Dal Forno procedure; conditions: read-out: pKi CCK-B (converted)
T1 construct: CCK-B receptor (guinea pig cortex assay); from tissue; host or cells: guinea pig cortex
Procedure: (§1) The greater affinity of the compounds of the invention for the CCK-B receptor over the CCK-A receptor has also been established using the CCK receptor binding assays described by G Dal Fornos et al., J. Pharmcol. Exp & Ther. 261, 1056-1063, 1992.
(§2) The binding affinity of the compounds of the invention for the CCK-A receptor (Pancreas Assay) and CCK-B receptor (guinea pig cortex assay) was determined using the procedure of G Dal Forno et al J. Pharmacol. Exp & Ther. 261-1056-1063. The pKi values determined with respresentative compounds of invention were as follows: […]

CCK-A receptor = assay: CCK receptor binding, CCK-A receptor (Pancreas Assay), Dal Forno procedure
Procedure: as §1, §2

T1 sequence (H0VZC5 entry or part of it): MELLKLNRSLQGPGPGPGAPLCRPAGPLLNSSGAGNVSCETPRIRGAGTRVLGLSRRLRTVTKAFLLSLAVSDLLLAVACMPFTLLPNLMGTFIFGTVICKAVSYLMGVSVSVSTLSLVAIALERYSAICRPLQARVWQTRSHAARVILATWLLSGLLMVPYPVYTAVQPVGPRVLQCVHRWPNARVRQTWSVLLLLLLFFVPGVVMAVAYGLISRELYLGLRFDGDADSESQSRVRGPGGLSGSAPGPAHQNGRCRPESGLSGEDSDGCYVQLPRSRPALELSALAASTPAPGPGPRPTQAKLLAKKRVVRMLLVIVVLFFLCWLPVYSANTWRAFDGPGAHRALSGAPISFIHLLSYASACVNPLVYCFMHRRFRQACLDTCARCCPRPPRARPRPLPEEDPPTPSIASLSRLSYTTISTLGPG

Compound: O=C(Nc1cccc(-c2nn[nH]n2)c1)NC1C(=O)N(CCC2CCCC2)c2ccccc2N(c2ccccc2F)C1=O (single isomer, unassigned; (+)) [Example 4, (+)-N-[1-(Cyclopentylethyl)-2,4-dioxo-5-(2-fluorophenyl)-2,3,4,5-tetrahydro-1H-benzodiazepin-3-yl]-N'-(3-tetrazolyl)phenylurea]
- Ki (CCK-B receptor): 0.105 nM
- pKi CCK-A (CCK-A receptor): 6.63

Compound: O=C(Nc1cccc(-c2nn[nH]n2)c1)NC1C(=O)N(CCC2CCCC2)c2ccccc2N(c2ccccc2F)C1=O (single isomer, unassigned; (-)) [Example 5, (-)-N-[1-(Cyclopentylethyl)-2,4-dioxo-5-(2-fluorophenyl)-2,3,4,5-tetrahydro-1H-benzodiazepin-3-yl]-N'-(3-tetrazolyl)phenylurea]
- Ki (CCK-B receptor): 0.269 nM
- pKi CCK-A (CCK-A receptor): 6.51

Compound: CC(C)(C)CCN1C(=O)C(NC(=O)Nc2cccc(-c3nnn[nH]3)c2)C(=O)N(c2ccccc2)c2ccccc21 (stereo not drawn) [Example 3, N-[1-(3,3-Dimethylbutyl)-2,4-dioxo-5-phenyl-2,3,4,5-tetrahydro-1H-1,5-benzodiazepine-3-yl]-N'[3-(5-tetrazolyl)-phenyl]urea]
- Ki (CCK-B receptor): 0.288 nM
- pKi CCK-A (CCK-A receptor): 7.64
